Test results as given in article PMC9228270, “Design, Synthesis, In Silico Studies and Inhibitory Activity towards Bcr-Abl, BTK and FLT3-ITD of New 2,6,9-Trisubstituted Purine Derivatives as Potential Agents for the Treatment of Leukaemia” (Pharmaceutics, 2022).
Read-outs that look alike come from different tables or passages of the source.

Key:
FLT3-ITD [1] = biological target: T1, FLT3-ITD (Homo sapiens, UniProt P36888, ITD); experiment: Recombinant kinase radioassay, FLT3-ITD; assay type: biochemical
T1 sequence (P36888 27-993): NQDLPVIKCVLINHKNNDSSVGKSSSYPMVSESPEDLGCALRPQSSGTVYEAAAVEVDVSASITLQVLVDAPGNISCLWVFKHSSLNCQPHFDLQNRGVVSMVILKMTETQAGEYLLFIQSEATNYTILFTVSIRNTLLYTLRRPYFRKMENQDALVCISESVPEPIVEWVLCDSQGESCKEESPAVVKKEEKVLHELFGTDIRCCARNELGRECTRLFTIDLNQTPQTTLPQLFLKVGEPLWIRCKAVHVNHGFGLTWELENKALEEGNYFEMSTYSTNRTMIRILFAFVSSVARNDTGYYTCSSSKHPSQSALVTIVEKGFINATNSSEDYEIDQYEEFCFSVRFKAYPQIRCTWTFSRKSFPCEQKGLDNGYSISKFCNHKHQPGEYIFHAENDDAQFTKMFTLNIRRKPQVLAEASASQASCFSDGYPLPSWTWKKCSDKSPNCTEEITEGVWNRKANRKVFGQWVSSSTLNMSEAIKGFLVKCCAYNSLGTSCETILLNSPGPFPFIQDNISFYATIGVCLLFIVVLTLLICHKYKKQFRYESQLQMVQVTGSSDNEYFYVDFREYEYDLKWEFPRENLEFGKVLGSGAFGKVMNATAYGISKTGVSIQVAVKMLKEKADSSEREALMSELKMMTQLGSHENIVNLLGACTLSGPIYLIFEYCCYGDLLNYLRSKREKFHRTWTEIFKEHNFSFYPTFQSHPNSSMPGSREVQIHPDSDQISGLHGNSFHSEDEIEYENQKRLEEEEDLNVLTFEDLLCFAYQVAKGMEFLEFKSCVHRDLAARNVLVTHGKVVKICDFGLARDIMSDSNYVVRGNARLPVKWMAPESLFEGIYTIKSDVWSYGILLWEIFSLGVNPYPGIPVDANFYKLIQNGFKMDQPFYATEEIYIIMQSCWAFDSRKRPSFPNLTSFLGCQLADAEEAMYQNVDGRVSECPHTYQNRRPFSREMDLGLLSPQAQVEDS
Method: (§1) Recombinant kinase inhibition was measured using standard radioassay. Bcr-Abl1 and Cdk-2/cyclin E kinases were produced in-house, FLT3-ITD and BTK were purchased from ProQinase. The kinases were assayed with suitable substrates (500 µM peptide […] for Abl, 1 mg/mL histone H1 for Cdk-2, 100 µM poly (Glu:Tyr; 4:1)) in the presence of ATP (1 µM for Bcr-Abl, 15 µM for Cdk-2 and BTK), 0.05 µCi [γ-^33P]ATP and the test compound in reaction buffer (60 mM HEPES-NaOH, pH 7.5, 3 mM MgCl2, 3 mM MnCl2, 3 µM Na orthovanadate, 1.2 mM DTT, 2.5 µg/50 µL PEG20.000). The reactions were stopped by adding 3% aq. H3PO4. P-81 phosphocellulose (Whatman) was used to separate phosphorylated substrates. Kinase activity was quantified using a FLA-7000 digital image analyser.

HL-60 = experiment: Cytotoxicity assay (resazurin), HL-60; assay type: cell-based; conditions: Homo sapiens, 72 h, three independent experiments, range 0.1 to 25 µM
Method: (§2) Cytotoxicity assays for the purines were quantified using the resazurin method, a dye to measure redox reactions occurring in the mitochondria of live cells. The cells were treated by tested compounds (in triplicate, six different doses) for 72 h.

Ramos = experiment: Cytotoxicity assay (resazurin), Ramos; assay type: cell-based; conditions: Homo sapiens, 72 h, three independent experiments, range 0.1 to 25 µM
Method: as §2

Bcr-Abl1 = Bcr-Abl1 (Homo sapiens, UniProt P00519); experiment: Recombinant kinase radioassay, Abl; assay type: biochemical; conditions: ATP 1 µM, at least three independent experiments, range 0.01–100 µM
Bcr-Abl1, sequence (P00519 27-1130): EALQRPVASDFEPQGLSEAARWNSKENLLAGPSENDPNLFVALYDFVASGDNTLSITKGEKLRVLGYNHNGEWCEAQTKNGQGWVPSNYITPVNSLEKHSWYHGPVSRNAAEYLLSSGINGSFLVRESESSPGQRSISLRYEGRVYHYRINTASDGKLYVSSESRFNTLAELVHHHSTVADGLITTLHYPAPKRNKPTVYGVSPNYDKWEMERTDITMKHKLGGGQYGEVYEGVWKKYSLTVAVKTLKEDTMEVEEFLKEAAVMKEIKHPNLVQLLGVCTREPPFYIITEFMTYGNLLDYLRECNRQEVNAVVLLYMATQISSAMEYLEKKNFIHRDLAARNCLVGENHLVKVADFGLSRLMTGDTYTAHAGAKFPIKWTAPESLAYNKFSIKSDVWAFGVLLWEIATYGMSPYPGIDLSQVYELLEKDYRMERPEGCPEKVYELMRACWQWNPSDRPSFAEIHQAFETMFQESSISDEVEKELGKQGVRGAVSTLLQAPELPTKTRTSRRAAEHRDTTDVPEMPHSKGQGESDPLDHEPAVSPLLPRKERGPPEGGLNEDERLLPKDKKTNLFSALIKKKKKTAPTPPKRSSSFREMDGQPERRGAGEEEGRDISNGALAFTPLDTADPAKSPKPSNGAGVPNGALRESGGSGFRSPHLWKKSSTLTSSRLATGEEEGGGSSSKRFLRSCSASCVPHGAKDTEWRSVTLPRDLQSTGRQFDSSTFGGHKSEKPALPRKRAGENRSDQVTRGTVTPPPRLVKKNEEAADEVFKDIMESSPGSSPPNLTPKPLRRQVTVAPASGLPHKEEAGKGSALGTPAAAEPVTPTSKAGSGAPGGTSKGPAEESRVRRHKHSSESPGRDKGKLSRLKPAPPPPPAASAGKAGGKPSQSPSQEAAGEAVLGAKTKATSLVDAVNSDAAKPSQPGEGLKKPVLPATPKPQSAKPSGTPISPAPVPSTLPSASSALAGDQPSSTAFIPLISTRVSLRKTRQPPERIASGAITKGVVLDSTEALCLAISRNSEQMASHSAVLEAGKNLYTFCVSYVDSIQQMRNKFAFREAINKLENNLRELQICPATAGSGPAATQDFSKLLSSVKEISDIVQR
Method: as §1

MV4-11 = experiment: Cytotoxicity assay (resazurin), MV4-11; assay type: cell-based; conditions: Homo sapiens, 72 h, three independent experiments, range 0.1 to 25 µM
Method: as §2

BTK = biological target: T2, BTK (Homo sapiens, UniProt Q06187); experiment: Recombinant kinase radioassay, BTK; assay type: biochemical
T2 construct: purchased ProQinase
T2 sequence (Q06187 whole entry): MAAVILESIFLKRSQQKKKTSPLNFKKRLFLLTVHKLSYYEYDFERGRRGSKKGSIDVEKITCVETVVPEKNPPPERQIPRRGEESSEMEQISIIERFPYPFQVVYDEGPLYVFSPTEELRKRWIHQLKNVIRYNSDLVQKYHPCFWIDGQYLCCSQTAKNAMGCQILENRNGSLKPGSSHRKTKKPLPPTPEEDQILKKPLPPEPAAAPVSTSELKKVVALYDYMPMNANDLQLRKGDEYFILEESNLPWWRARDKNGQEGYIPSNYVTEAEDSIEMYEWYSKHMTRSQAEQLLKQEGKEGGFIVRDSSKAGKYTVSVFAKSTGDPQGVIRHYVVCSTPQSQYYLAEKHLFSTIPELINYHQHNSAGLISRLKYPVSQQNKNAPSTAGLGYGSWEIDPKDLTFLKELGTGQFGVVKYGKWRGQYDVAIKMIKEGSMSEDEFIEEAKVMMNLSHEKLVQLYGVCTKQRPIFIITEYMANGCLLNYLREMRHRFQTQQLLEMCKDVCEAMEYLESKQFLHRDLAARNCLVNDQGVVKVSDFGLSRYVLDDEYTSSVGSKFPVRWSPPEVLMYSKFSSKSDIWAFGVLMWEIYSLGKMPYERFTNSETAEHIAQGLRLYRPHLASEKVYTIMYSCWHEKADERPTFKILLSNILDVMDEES
Method: as §1

CEM = experiment: Cytotoxicity assay (resazurin), CEM; assay type: cell-based; conditions: Homo sapiens, CCRF-CEM, 72 h, three independent experiments, range 0.1 to 25 µM
Method: as §2

Cdk-2/cyclin E = biological target: T3, Cdk-2/cyclin E (Homo sapiens, UniProt P24941); experiment: Recombinant kinase radioassay, Cdk-2/cyclin E; assay type: biochemical; conditions: ATP 15 µM, at least three independent experiments, range 0.01–100 µM
T3 construct: made in house
Method: as §1

K562 = experiment: Cytotoxicity assay (resazurin), K562; assay type: cell-based; conditions: Homo sapiens, 72 h, three independent experiments, range 0.1 to 25 µM
Method: as §2

FLT3-ITD [2] = biological target: T4, FLT3-ITD (Homo sapiens, UniProt P36888); design: method as in PMID 29672049; conditions: cited from earlier work
T4 sequence (P36888 27-993): T1 sequence (P36888 27-993)

[3] = recombinant kinase, radioassay, at least three independent experiments, range 0.01–100 µM, read-out: IC50 FLT3-ITD
[4] = recombinant kinase, radioassay, ATP 15 µM, at least three independent experiments, range 0.01–100 µM, read-out: IC50 BTK

IC50 (FLT3-ITD [1]; [3]) [µM] | IC50 (Bcr-Abl1) [µM] | IC50 (BTK; [4]) [µM] | IC50 (Cdk-2/cyclin E) [µM] | melting point [°C] | IC50 (FLT3-ITD [1]; -log IC50 in molar concentration, Table S3, read-out: Experimental pIC50, CoMFA FLT3 (converted)) [µM] | IC50 (BTK; -log IC50 in molar concentration, Table S3, read-out: Experimental pIC50, CoMFA BTK (converted)) [µM] | Structure (SMILES) | GI50 (HL-60) [µM] | GI50 (Ramos) [µM] | GI50 (MV4-11) [µM] | GI50 (CEM) [µM] | GI50 (K562) [µM] | IC50 (FLT3-ITD [2]) [µM]
1.81 | 0.94 ± 0.22 | 2.73 ± 0.17 | 14.2 ± 1.24 | 142 to 143 | – | – | CN1CCN(C(=O)c2ccc(Nc3nc(Nc4ccc(F)c(F)c4)c4ncn(CC5CC5)c4n3)cc2)CC1 [Compound 8c, (4-((9-(Cyclopropylmethyl)-6-((3,4-difluorophenyl)amino)-9H-purin-2-yl)amino)phenyl)(4-methylpiperazin-1-yl)methanone] | 2.39 ± 0.89 | 14.69 ± 0.02 | 1.52 ± 0.31 | 20.7 ± 4.07 | 6.07 ± 0.08 | –
> 20 | 62.3 ± 12.1 | > 20 | 46.2 ± 1.49 | 102.3 to 105.5 | 1.54 | 2.39 | CN1CCN(c2ccc(Nc3nc(Nc4ccccc4)c4ccn(CC5CC5)c4n3)cc2)CC1 [Compound 12, 7-(Cyclopropylmethyl)-N^2-(4-(4-Methylpiperazin-1-yl)Phenyl)-N^4-Phenyl-7H-pyrrolo[2,3-d]Pyrimidine-2,4-Diamine] | 3.58 ± 0.65 | 12.8 ± 0.61 | 8.28 ± 2.9 | 15.5 ± 1.46 | 6.38 ± 1.14 | –
– | – | – | – | – | – | – | NC1CCC(Nc2nc(Nc3ccc(CN4CCOCC4)cc3)c3ncn(C4CCCC4)c3n2)CC1 (centres unmarked) [II] | – | – | – | – | – | 0.002
